Measured values from US20070048325A1, “Combination therapies for inhibiting integrin-extracellular matrix interactions” (priority 2005, published 2007).
Where no end group is shown, it is not given here.

B1: mAb HUIV26: monoclonal antibody to denatured collagen; Hybridoma HUIV26 (PTA-6563); SEQ ID NO: 15 and 22 (antibody, listed as Mus musculus, V domains shown)
VH: EVKLLESGGGLVQPGGSLKLSCAASGFDFSRYWMSWVRQAPGKGLEWIGEINPDSSTINYTPSLKDKFIISRDNAKNTLYLQMSKVRSEDTALYYCARPVDGYYDAMDYWGQGTSVTVSS
VL: DIVMTQSPSLLSVSAGEKVTMSCKSSQSLLNSGNQKNYLAWYQQKPGQPPKLLIYGASTRESGVPDRFTGSGSGTDFTLIISSVQAEDLAVYYCQNDHSVPYTFGGGTKLEI

Experiments:
[1] = target: integrin αvβ3 on M21 human melanoma cells (human (on human melanoma M21 cells)) (UniProt P06756); test: cell-based or functional assay
Sequence of UniProt P06756 (P06756 31-1048, chain 1 of 2): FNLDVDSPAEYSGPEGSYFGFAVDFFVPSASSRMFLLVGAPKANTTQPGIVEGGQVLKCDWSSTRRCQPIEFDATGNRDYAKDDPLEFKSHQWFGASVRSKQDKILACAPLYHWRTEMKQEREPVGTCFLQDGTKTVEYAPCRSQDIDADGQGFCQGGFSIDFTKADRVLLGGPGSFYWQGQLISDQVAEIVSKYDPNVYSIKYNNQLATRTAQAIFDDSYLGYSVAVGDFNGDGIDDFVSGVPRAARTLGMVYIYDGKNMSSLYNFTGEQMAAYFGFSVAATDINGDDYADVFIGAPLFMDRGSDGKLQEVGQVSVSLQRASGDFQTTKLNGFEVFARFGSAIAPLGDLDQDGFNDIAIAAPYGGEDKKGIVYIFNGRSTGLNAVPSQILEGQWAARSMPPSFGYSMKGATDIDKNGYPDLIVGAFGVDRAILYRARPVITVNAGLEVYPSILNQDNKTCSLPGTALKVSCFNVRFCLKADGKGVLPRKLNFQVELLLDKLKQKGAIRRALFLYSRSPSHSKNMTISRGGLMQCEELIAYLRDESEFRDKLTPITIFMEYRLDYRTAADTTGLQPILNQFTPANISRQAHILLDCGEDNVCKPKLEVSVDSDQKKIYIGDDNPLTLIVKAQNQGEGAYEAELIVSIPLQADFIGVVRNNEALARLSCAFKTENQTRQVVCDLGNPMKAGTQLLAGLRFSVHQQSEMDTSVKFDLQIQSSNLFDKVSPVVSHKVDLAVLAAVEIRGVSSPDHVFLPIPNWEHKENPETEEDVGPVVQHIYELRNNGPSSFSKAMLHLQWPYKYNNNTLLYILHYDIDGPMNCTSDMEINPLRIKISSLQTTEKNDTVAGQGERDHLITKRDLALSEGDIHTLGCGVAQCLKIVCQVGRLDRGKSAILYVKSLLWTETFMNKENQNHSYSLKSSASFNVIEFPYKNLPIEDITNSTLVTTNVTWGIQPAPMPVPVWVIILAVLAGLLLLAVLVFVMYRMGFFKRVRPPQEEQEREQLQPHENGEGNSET
Sequence of UniProt P06756 (P05106 27-788, chain 2 of 2, further chain): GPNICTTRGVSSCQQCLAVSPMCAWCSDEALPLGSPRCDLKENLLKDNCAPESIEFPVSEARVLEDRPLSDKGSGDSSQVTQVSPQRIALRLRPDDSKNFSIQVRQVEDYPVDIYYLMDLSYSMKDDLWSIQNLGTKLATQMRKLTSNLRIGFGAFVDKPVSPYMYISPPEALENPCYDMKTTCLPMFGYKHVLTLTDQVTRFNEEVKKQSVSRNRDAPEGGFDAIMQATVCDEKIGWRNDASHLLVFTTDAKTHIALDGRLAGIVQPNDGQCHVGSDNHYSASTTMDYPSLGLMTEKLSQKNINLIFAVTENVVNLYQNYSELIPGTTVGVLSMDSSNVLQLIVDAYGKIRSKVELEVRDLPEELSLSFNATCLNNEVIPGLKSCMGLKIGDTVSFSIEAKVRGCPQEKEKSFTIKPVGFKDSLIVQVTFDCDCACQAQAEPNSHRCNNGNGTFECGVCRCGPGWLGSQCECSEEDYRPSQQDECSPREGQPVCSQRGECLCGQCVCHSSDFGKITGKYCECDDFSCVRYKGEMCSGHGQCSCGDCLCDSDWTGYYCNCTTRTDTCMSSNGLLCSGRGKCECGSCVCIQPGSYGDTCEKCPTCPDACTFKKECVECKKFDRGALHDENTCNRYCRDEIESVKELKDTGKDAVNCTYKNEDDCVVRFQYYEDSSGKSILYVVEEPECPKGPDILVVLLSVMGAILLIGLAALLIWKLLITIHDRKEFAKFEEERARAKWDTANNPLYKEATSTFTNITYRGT

M21 cells = test: M21 cell adhesion to native collagen type-IV; assay type: cell-based, human; conditions: CLK-peptide 100 μg/ml; mAb HUIV26 100 μg/ml; data not shown
Method: FIG. 25 Effect of mAb HUIV26 in Combination with CLK-Peptide on Adhesion of M21 Cells to Denatured Collagen Type IV. Microtiter wells were coated with either native or denatured collagen type-IV. M21 cells were allowed to bind to the coated substrates in the presence of CLK-peptide, mAb HUIV26, or both.
The effects of CLK-peptide, mAb HUIV26, and the combination of both on tumor cell adhesion were examined in vitro. Non-tissue culture treated 48-well microtiter plates were coated overnight at 4° C. with either native or denatured collagen type-IV (5 μg/ml). The plates were then blocked with 1% BSA in PBS for 1 hour at 37° C. Human melanoma (M21) cells at 10^5 cells/well in adhesion buffer were allowed to attach to the coated wells in the presence of either CLK-peptide (100 μg/ml), or mAb HUIV26 (100 μg/ml, […]), or both together (CLK-peptide 25 μg/ml, mAb HUIV26 100 μg/ml). The cells were washed 2× with PBS, stained with crystal violet and destained with 10% acetic acid. Cell adhesion was quantified by measuring the O.D. of eluted dye at 600 nm. Data bars represent the mean O.D.±standard deviation from triplicate wells.

[2] = tested on: denatured collagen type-IV; test: Competition ELISA of CLK-peptide and mAb HUIV26; assay type: binding
Method: FIG. 26 Binding of CLK-Peptide and Mab HUIV26 to Denatured Collagen Type IV. To examine the epitope bound by CLK and HUIV26, competition ELISAs were carried out. Microtiter wells were coated with denatured collagen type-IV (10 μg/ml), and mAb HUIV26 was allowed to bind the denatured collagen in the presence or absence of CLK-peptide.
To characterize the epitope bound by CLK and HUIV26, competition ELISAs were carried out. Microtiter wells were coated with denatured collagen type-IV (1 μg/ml) overnight at 4° C., and the plates were blocked with 1% BSA for 1 hour at 37° C. Monoclonal Ab HUIV26 was added at 1 μg/ml and allowed to bind the denatured collagen in the presence or absence of 100 μg/ml of CLK-peptide for 2 hours at 37° C. Goat-anti-mouse antibody was added at 1:3000 and incubation was allowed for 1 hour at 37° C. A color solution, then a stopping solution of 4N sulfuric acid, were added and binding was quantified by measuring the O.D. 490 nm. […] Similar results were obtained over a wide range of peptide and antibody concentrations (1 to 100 μg/ml; data not shown).

[3] = tested on: denatured collagen type-IV; test: ^99Tc-labeled CLK-peptide binding, gamma counter; conditions: for inhibition of ^99Tc-CLK-peptide binding to denatured collagen type-IV: collagen coated at 10 μg/ml
Method: FIG. 28 Inhibition of Binding of ^99Tc-Labeled CLK-Peptide to Denatured Collagen Type-IV by mAb HUI77. Denatured collagen type-IV (10 μg/ml) was coated on microtiter wells and binding of ^99Tc-labeled CLK-peptide in the presence or absence of unlabeled CLK-peptide or mAb HUI77 was measured. […] These findings provide further evidence that the CLK-peptide binds to a similar, if not identical, epitope recognized by the mAb HUI77.
In addition, denatured collagen type-IV (10 μg/ml) was coated on microtiter wells and binding of ^99Tc-labeled CLK-Peptide in the presence or absence of unlabeled CLK-peptide or mAb HUI77 was measured using a gamma counter. […] These findings provide further evidence that the CLK-peptide binds to a similar if not identical epitope recognized by Mab HUI77.

[4] = tested on: denatured collagen type-IV; conditions: substantially greater defined as at least 1.5-fold; cited from earlier work
[5] = tested on: denatured collagen type-IV; test: Solid phase ELISA of HRP-labeled CLK-peptide binding; conditions: collagen coated at 10 μg/ml; ELISA 490 nm
Method: FIG. 27 Inhibition of Binding of Labeled CLK-Peptide to Denatured Collagen Type-IV by mAb HUI77. To examine the binding specificity of the synthetic CLK-peptide, the peptide was labeled and solid phase ELISAs were performed.
To examine the binding specificity of CLK-Peptide, the peptide was labeled and solid phase ELISAs were performed. Denatured collagen type-IV (10 μg/ml) was coated on microtiter wells and binding of either HRP-labeled CLK-Peptide or mAbs (mAbs HU177 or HUIV26) was measured by ELISA at a wavelength of 490 nm.

denatured collagen = conditions: cited from earlier work

Molecule	effect on M21 cell adhesion to native collagen type-IV (M21 cells)	inhibition of ^99Tc-CLK-peptide binding to denatured collagen type-IV [3]	binding affinity to denatured collagen type-IV compared to native collagen type-IV [4]	inhibition of HRP-labeled CLK-peptide binding to denatured collagen type-IV [5]	affinity to the native form of the collagen compared to denatured collagen (denatured collagen)	further results
Mab LM609 (antibody)						relative level of IGFBP-4 RNA (real time PCR) in M21 cells on denatured collagen type-IV [1]: 8 fold; relative level of TSP-1 (real time PCR) in M21 cells on plates coated with anti-integrin Mabs [1]: > 50%; relative level of TSP-1 RNA (real time PCR) in M21 cells on denatured collagen type-IV [1]: 8 fold
NH2-C-L-K-Q-N-G-G-N—F—S-L-G-COOH (H-CLKQNGGNFSLG-OH) [CLK-peptide]	neither had any effect	dose dependent inhibition	substantially greater			blocking of mAb HUIV26 binding to denatured collagen type-IV ([2]; HUIV26 1 μg/ml, CLK-peptide 100 μg/ml): did not block
NH2-S-L-K-Q-N-G-G-N—F—S-L-C—COOH (H-SLKQNGGNFSLC-OH) [SLK-peptide]			substantially greater			
^99Tc-CLK-peptide: CLK-peptide labeled with 99Tc (CLKQNGGNFSLG; also: labeled with 99Tc)						binding of ^99Tc-CLK-peptide to denatured collagen type-IV ([3]; 10 μg/ml, 50 μl/well): specifically binds
mAb HUI77: mouse monoclonal antibody to denatured collagen; hybridoma PTA-6551; SEQ ID NO: 1 and 8		inhibited		specifically inhibited	substantially reduced affinity	
B1	neither had any effect			not	substantially reduced affinity	binding to denatured collagen type-IV ([2]; ELISA, HUIV26 1 μg/ml): readily bound; blocking of CLK-peptide binding to denatured collagen type-IV ([2]; FIG. 26B): did not block
